Nine compounds from ChEMBL document CHEMBL1201862, “PubChem BioAssay data set” (2004) can be followed below.

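Dose response: 5 concentrations. Exposure: 48 h. Format: 96-well plates. Endpoint: linear interpolation; highest concentration if not reached. GI50 = concentration required for 50% inhibition of growth.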 The source made the active and inactive calls. Rule as the data show it: active = GI50 up to about 1.1 µM and inactive = higher. Some results are limits rather than exact numbers.

Test systems include Malme-3M; IGROV-1; SF-539; U-251; HT-29; CCRF-CEM; SK-MEL-28; OVCAR-4; HOP-92; OVCAR-5; NCI-H23; M14; LOX IMVI; SK-OV-3; EKVX; NCI-H226; OVCAR-8; SNB-75; K562; SF-295.
Experiment in all cases: NCI tumour cell line growth inhibition, 48 h

On to `O=C(CCC(=O)Nc1ccc(Cl)c(Cl)c1)CC(=O)c1ccc(Br)cc1`, for which the GI50 in the experiment on Malme-3M, in the experiment with IGROV-1, in the experiment with SF-539, with U-251, in the experiment on HT-29 and with CCRF-CEM was > 100 µM (inactive) throughout. The GI50 in the experiment with SK-MEL-28, in the experiment with OVCAR-4, in the experiment on HOP-92, in the experiment on OVCAR-5, with NCI-H23 and in the experiment with M14 was > 100 µM (inactive) throughout. For the same compound, the GI50 was > 100 µM (inactive) with LOX IMVI; > 100 µM (inactive) with SK-OV-3; > 100 µM (inactive) in the experiment with EKVX; > 100 µM (inactive) in the experiment on NCI-H226; > 100 µM (inactive) with OVCAR-8; 61.7 µM (inactive) in the experiment with SNB-75. In the experiment on K562, the GI50 was 47.8 µM (inactive).
Take `O=C1C=CC2(O[C@@H](Cc3ccccc3)[C@H](Cc3ccccc3)O2)C(SC(=O)c2ccccc2)C1` (stereo partly specified): the GI50 in the experiment with Malme-3M was 2.07 µM (inactive); with IGROV-1 it was 1.26 µM (inactive); in the experiment on SF-539, 1.66 µM (inactive); in the experiment with U-251 it was 1.3 µM (inactive); in the experiment with HT-29 it was 1.64 µM (inactive); in the experiment on CCRF-CEM, 0.208 µM (active). In addition, the GI50 in the experiment with SK-MEL-28 is 1.81 µM (inactive); in the experiment with OVCAR-4 it was 1.47 µM (inactive); in the experiment on HOP-92, 1.54 µM (inactive); in the experiment on OVCAR-5, 0.439 µM (active); with NCI-H23, 1.69 µM (inactive); in the experiment with M14, 1.45 µM (inactive). Also, the GI50 in the experiment with LOX IMVI was 0.38 µM (active); with SK-OV-3, 2.75 µM (inactive); with NCI-H226, 1.52 µM (inactive); with OVCAR-8, 0.209 µM (active); with SNB-75 it was 1.91 µM (inactive); in the experiment on K562, 1.64 µM (inactive). Moreover, the GI50 with SF-295 was 1.95 µM (inactive).
Consider `CC(=O)O[C@H]1[C@@H](OC(C)=O)C(C)(C)/C=C/[C@H](C)C(=O)[C@@]2(OC(C)=O)C[C@@](C)(OC(C)=O)[C@H](OC(C)=O)[C@@H]2[C@H]2OC(=O)CC[C@@]2(OC(=O)c2ccccc2)[C@@H]1OCC(C)C`, for which the GI50 is 22.9 µM (inactive) in the experiment on Malme-3M; 68.5 µM (inactive) with IGROV-1; 5.47 µM (inactive) in the experiment on SF-539; 80.4 µM (inactive) with U-251; 13.5 µM (inactive) in the experiment on HT-29; 11.2 µM (inactive) in the experiment on CCRF-CEM. Besides, the GI50 in the experiment on OVCAR-4 was 62.7 µM (inactive); with HOP-92, 0.977 µM (active); with OVCAR-5, > 100 µM (inactive); with NCI-H23, 38.7 µM (inactive); with M14, 15.6 µM (inactive); in the experiment with LOX IMVI, > 100 µM (inactive). For the same compound, the GI50 is > 100 µM (inactive) in the experiment with SK-OV-3; 87.9 µM (inactive) in the experiment with EKVX; 92 µM (inactive) in the experiment on NCI-H226; > 100 µM (inactive) in the experiment on OVCAR-8; 17.8 µM (inactive) in the experiment on SNB-75; 4.51 µM (inactive) with K562. The GI50 with SF-295 was 3.63 µM (inactive).
With `Cn1c(=O)ccc2c(=O)c3ccccc3oc21`, the GI50 in the experiment on Malme-3M, in the experiment on IGROV-1, in the experiment on SF-539, in the experiment on U-251, in the experiment with HT-29 and in the experiment with CCRF-CEM was > 100 µM (inactive) in each case. The GI50 was > 100 µM (inactive) in the experiment with SK-MEL-28; > 100 µM (inactive) in the experiment with OVCAR-4; 67.6 µM (inactive) in the experiment on HOP-92; > 100 µM (inactive) in the experiment with OVCAR-5; > 100 µM (inactive) with NCI-H23; > 100 µM (inactive) with M14. The GI50 in the experiment with LOX IMVI was > 100 µM (inactive); in the experiment with SK-OV-3 it was > 100 µM (inactive); in the experiment with EKVX, > 100 µM (inactive); in the experiment on NCI-H226, > 100 µM (inactive); in the experiment with OVCAR-8, > 100 µM (inactive); in the experiment on SNB-75 it was 0.029 µM (active). The GI50 with K562 and in the experiment with SF-295 was > 100 µM (inactive) throughout.
For the compound `CC1(C)C(=O)/C=C\C(=O)C(C)(C)C2=CC=C(O2)C(C)(C)C(=O)C(Br)C(Br)C(=O)C(C)(C)C2=CC=C1O2` (stereo unspecified), the GI50 is 49.9 µM (inactive) in the experiment with Malme-3M; > 52.6 µM (inactive) in the experiment on IGROV-1; > 68.9 µM (inactive) in the experiment with SF-539; 41.4 µM (inactive) with U-251; 41.8 µM (inactive) with HT-29; 1.93 µM (inactive) with CCRF-CEM. Also, the GI50 is 76.7 µM (inactive) in the experiment with SK-MEL-28; > 74.5 µM (inactive) with OVCAR-4; > 21.5 µM (inactive) in the experiment on HOP-92; > 100 µM (inactive) in the experiment with OVCAR-5; 48.5 µM (inactive) in the experiment with NCI-H23; 58.7 µM (inactive) in the experiment with M14. Moreover, the GI50 is 23 µM (inactive) in the experiment on LOX IMVI; > 100 µM (inactive) with SK-OV-3; > 100 µM (inactive) in the experiment on EKVX; > 100 µM (inactive) in the experiment with NCI-H226; 12 µM (inactive) in the experiment with OVCAR-8; 51.6 µM (inactive) in the experiment with SNB-75. Besides, the GI50 in the experiment on K562 was 5.19 µM (inactive); in the experiment with SF-295 it was > 100 µM (inactive).
Consider `[C-]#[N+]C(=C\c1ccc(O)cc1)/C(=C/c1ccc(O)cc1)[N+]#[C-]` [XANTOCILLIN], for which the GI50 in the experiment with Malme-3M is 0.871 µM (active); in the experiment with IGROV-1, 2.13 µM (inactive); in the experiment on SF-539, 2.97 µM (inactive); in the experiment on U-251, 1.57 µM (inactive); with HT-29 it was 10.9 µM (inactive); in the experiment with CCRF-CEM, 0.76 µM (active). Moreover, the GI50 was 2.61 µM (inactive) with SK-MEL-28; 3.19 µM (inactive) with OVCAR-4; 2.9 µM (inactive) in the experiment on HOP-92; 4.94 µM (inactive) in the experiment on OVCAR-5; 2.31 µM (inactive) with NCI-H23; 2.28 µM (inactive) in the experiment on M14. For the same compound, the GI50 is 1.64 µM (inactive) in the experiment with LOX IMVI; 3.39 µM (inactive) with SK-OV-3; 2.06 µM (inactive) in the experiment with EKVX; 2.37 µM (inactive) in the experiment with NCI-H226; 1.28 µM (inactive) in the experiment on OVCAR-8; 1.12 µM (inactive) with SNB-75. Further, the GI50 in the experiment with K562 was 0.465 µM (active); in the experiment on SF-295 it was 4.02 µM (inactive).
As for `CC(=O)Nc1ccc(C2=N/C(=C\c3ccc(Cl)c(Cl)c3)C(=O)O2)cc1`, the GI50 in the experiment with Malme-3M, in the experiment on IGROV-1, in the experiment on SF-539, in the experiment with U-251, in the experiment on HT-29 and in the experiment on CCRF-CEM was > 100 µM (inactive) in each case. Moreover, the GI50 was > 100 µM (inactive) with SK-MEL-28; > 100 µM (inactive) in the experiment on OVCAR-4; 68.9 µM (inactive) in the experiment on HOP-92; > 100 µM (inactive) with OVCAR-5; > 100 µM (inactive) with NCI-H23; > 100 µM (inactive) in the experiment with M14. In addition, the GI50 in the experiment on LOX IMVI was 30 µM (inactive); in the experiment on SK-OV-3 it was > 100 µM (inactive); in the experiment on EKVX it was > 100 µM (inactive); with NCI-H226 it was > 100 µM (inactive); in the experiment with OVCAR-8, > 100 µM (inactive); with SNB-75, 64.6 µM (inactive). In addition, the GI50 in the experiment with K562 and in the experiment on SF-295 was > 100 µM (inactive) each time.
For `O=C1CC2(CCC(O)(c3ccco3)C(C(=O)c3ccco3)C2)C(=O)c2ccccc2N1` (stereo unspecified), the GI50 is > 100 µM (inactive) with Malme-3M; 99.1 µM (inactive) in the experiment on IGROV-1; > 100 µM (inactive) with SF-539; > 100 µM (inactive) in the experiment on U-251; > 100 µM (inactive) with HT-29; > 10 µM (inactive) in the experiment on CCRF-CEM. Also, the GI50 was 17.3 µM (inactive) with OVCAR-4; 56.9 µM (inactive) in the experiment with HOP-92; > 100 µM (inactive) in the experiment on OVCAR-5; > 100 µM (inactive) with NCI-H23; 99.5 µM (inactive) in the experiment on M14; 48.6 µM (inactive) in the experiment with LOX IMVI. Further, the GI50 with SK-OV-3 is > 100 µM (inactive); with EKVX, > 100 µM (inactive); in the experiment on NCI-H226, > 100 µM (inactive); with OVCAR-8, 86.9 µM (inactive); in the experiment on SNB-75 it was 32.2 µM (inactive); in the experiment with K562, 50.1 µM (inactive). For the same compound, in the experiment on SF-295, the GI50 is > 100 µM (inactive).
On to `COc1ccc(C(c2cc3c(cc2O)OCO3)N2CCOCC2)cc1OC` (stereo unspecified), for which the GI50 is 13.1 µM (inactive) in the experiment with Malme-3M; 14.9 µM (inactive) with IGROV-1; 14.6 µM (inactive) in the experiment with SF-539; 9.64 µM (inactive) in the experiment on U-251; 12.9 µM (inactive) in the experiment with HT-29; 0.327 µM (active) with CCRF-CEM. For the same compound, the GI50 with SK-MEL-28 was 17.5 µM (inactive); in the experiment on OVCAR-4 it was 15.6 µM (inactive); in the experiment with HOP-92 it was 16 µM (inactive); with OVCAR-5, 9.95 µM (inactive); in the experiment on NCI-H23, 4.15 µM (inactive); in the experiment with M14 it was 12.4 µM (inactive). Besides, the GI50 was 4.01 µM (inactive) in the experiment with LOX IMVI; 14.1 µM (inactive) with SK-OV-3; 19.1 µM (inactive) with EKVX; 11.1 µM (inactive) with NCI-H226; 5.02 µM (inactive) in the experiment on OVCAR-8; 15.3 µM (inactive) with SNB-75. Besides, the results for the GI50 in the experiment with K562 and with SF-295 were 7.6 µM (inactive) and 14.2 µM (inactive), respectively.
